Test results: patent US7049340B1, “Neuroprotective and retinoprotective ophthalmologic drugs” (priority 1999, dated 2006)
Where two headings read alike, the source gives them in different places.

How the values were obtained:
treated patients = test: Visual function in treated patients, enalaprilat used instead of ramipril; type: in vivo, human; details: comparison enalaprilat vs ramiprilat
Source text: It should be remembered that the physico-chemical indications described above originate from the article by Vasmant et al., loc. cit.

rabbit converting enzyme [1] = biological target: T1, rabbit converting enzyme (Oryctolagus cuniculus, UniProt P12822); details: cited from earlier work
T1 construct: host or cells: rabbit lung (only from the title of the cited Shapiro thesis)
T1 sequence (P12822 34-1310): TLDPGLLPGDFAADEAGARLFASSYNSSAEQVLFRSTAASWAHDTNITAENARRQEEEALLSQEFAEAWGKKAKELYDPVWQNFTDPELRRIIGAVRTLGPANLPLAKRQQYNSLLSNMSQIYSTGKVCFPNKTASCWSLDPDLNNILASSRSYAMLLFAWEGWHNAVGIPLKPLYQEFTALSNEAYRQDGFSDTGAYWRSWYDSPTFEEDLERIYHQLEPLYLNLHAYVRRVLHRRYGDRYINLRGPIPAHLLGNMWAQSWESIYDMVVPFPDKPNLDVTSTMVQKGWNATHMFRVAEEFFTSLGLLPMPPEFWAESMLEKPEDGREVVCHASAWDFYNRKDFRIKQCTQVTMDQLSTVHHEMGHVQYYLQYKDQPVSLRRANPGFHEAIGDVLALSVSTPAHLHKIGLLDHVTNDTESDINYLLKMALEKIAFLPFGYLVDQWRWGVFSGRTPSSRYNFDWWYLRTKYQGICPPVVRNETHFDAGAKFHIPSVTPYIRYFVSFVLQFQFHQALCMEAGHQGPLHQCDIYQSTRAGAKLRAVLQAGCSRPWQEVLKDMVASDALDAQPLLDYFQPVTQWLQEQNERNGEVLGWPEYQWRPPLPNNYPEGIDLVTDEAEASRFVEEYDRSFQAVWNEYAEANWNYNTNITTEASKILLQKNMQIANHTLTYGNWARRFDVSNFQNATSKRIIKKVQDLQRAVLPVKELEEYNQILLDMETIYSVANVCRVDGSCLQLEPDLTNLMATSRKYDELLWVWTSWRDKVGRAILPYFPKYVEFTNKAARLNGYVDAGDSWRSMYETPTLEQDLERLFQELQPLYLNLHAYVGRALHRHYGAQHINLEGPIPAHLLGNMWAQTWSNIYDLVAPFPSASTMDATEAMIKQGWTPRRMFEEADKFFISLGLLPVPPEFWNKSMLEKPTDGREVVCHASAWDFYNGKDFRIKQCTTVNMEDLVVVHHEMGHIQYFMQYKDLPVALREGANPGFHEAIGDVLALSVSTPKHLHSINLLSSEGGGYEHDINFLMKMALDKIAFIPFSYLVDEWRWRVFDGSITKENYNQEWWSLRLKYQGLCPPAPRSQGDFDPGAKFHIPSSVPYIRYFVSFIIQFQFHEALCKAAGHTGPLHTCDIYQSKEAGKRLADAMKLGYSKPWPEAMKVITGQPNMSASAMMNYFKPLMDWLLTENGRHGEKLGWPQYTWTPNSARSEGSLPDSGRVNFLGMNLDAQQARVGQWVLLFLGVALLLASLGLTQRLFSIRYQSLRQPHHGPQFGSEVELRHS

rabbit converting enzyme [2] = biological target: T1, rabbit converting enzyme; test: In vitro inhibition of rabbit converting enzyme (Bünning and Shapiro methods); type: biochemical
Source text: Doubtless, such drugs intervene in the CEI action mechanism, in that they act by preventing the transformation of angiotensin I to angiotensin II (vasoconstrictor) and the degradation of bradykinins (vasodilators). These CEIs thus cause vasodilation, which is exerted on arteries and on veins. Thus, they are mixed vasodilators. It should be remembered that the mechanism for the formation of the bond that can be formed between the inhibitor and the enzyme normally occurs in two phases, the first consisting of the formation of an inhibitor-enzyme complex by a competitive bond, which involves a reaction governed by a constant K1, and the second, consisting of a slow isomerisation of the inhibitor-enzyme complex, itself also governed by a reversible rate constant for this reaction, k4.
Comparison with captopril and enalaprilat” in Drug Research 1984; 34:1406–1410, and the doctoral thesis by Shapiro R. (Ph.D. Thesis, Harvard University Cambridge, Mass., 1983 “Activation and inactivation of rabbit pulmonary angiotensin converting enzyme”.

healthy subject = test: General arterial pressure at doses that improve field of vision; type: in vivo, human; details: in vivo
Source text: Effective doses for producing effects in the ophtalmologic field are desirably lower than doses that would induce general arterial hypotension in a subject with normal pressure. Clearly, the doses that can be used can be higher in subjects with hypertension, although this is not necessary, since the desired effect is that obtained in the ophtalmologic field.

Compound	improvement in visual function in treated patients (treated patients)	constant k4 for the reversible isomerisation of the enzyme-inhibitor complex (rabbit converting enzyme [1]; 50 mM/l Hepes, 300 mmol/l NaCl, 1 micromol/l ZnCl2, pH 7.5)	Ki (rabbit converting enzyme [1]; in vitro, 50 mM/l Hepes, 300 mmol/l NaCl, 1 micromol/l ZnCl2, pH 7.5, read-out: equilibrium inhibition constant K)	stability of enzyme complex relative to enalaprilat (rabbit converting enzyme [2]; from k4)	Ki relative to enalaprilat (rabbit converting enzyme [2]; printed as 'higher than with enalaprilat')	effect on arterial pressure of doses that improve field of vision (healthy subject)	Ki (rabbit converting enzyme [1]; unit inferred, read-out: constant Ki)	constant k4 (rabbit converting enzyme [1]; unit not given)
C[C@H](N[C@@H](CCc1ccccc1)C(=O)O)C(=O)N1CCC[C@H]1C(=O)O [enalaprilat]	moderate improvement	1.1×10^−4 S1	0.05 nM					
C[C@H](N[C@@H](CCc1ccccc1)C(=O)O)C(=O)N1[C@H](C(=O)O)C[C@@H]2CCC[C@@H]21 [ramiprilat]	incomparably better			six times more stable	7 times	do not cause arterial hypertension	0.007 nM	1.8×10^−5
